Laboratory results taken from US20230320984A1, “TOFACITINIB-CONTAINING ANHYDROUS ELASTOMER-BASED GEL FORMULATIONS” (Vyne Therapeutics Inc., priority 2022, published 2023).
Where two headings read alike, the source gives them in different places. Values belong to the compound of their own block, whether it stands above or below them.

Legend:
[1] = Toxicokinetics / pK in minipigs (Method T); settings: day 1; tofacitinib 0.6% fingolimod 0.005% gel group
Procedure: (§1) The animals are not fasted prior to blood collection, with the exception of the intervals that coincide with fasting for clinical pathology collections.
(§2) If necessary, the samples are frozen on dry ice prior to being placed in the freezer. […] Samples are stored at the bioanalytical laboratories in a freezer set to maintain −80±10° C. until analysis.
(§3) Samples designated for analysis of fingolimod and fingolimod phosphate are mixed gently, lysed with an equal volume of deionized water, vortexed for approximately 1 minute, divided into two approximately equal aliquots, transferred to uniquely labeled polypropylene tubes and frozen in a freezer set to maintain −70° C. If necessary, the samples are frozen on dry ice prior to being placed in the freezer. The samples for fingolimod analysis are shipped with a temperature monitoring device to bioanalytical laboratories. Samples are stored at the bioanalytical laboratories in a freezer set to maintain −75±15° C. until analysis.
(§4) Whole blood is analyzed for concentration of fingolimod and fingolimod phosphate using a validated analytical procedure for the simultaneous quantitation of both analytes.
(§5) TK samples collected on Days 49 and 56 from recovery animals in Groups 1, 2, 3, 5, and 6 are also analyzed. […]

[2] = Human equivalent dose, safety factor and predicted exposure from the minipig NOAEL
[3] = cited from earlier work
[4] = Chemical stability of formulations (Method H); format: physicochemical; settings: gel with Tofacitinib Citrate 1.0% and Fingolimod HCl 0.01% (Table 38)
Procedure: Where another active agent such as fingolimod is present in the formulations the samples are analyzed for that active agent and its degradation products by HPLC. […] The gradient elution is employed.

[5] = human, in vivo
Procedure: Values below the limit of concentration are omitted from determination of geometric mean and geometric % CV.
Samples designated for analysis of fingolimod and fingolimod phosphate are collected and processed for shipment to bioanalytical laboratories. Frozen samples are thawed at room temperature and homogenized by vortexing. 10 μL of ISTD working solution (WS ISTD2 50 ng/mL in methanol/water, 50/50, V/V) is addeded to Eppendorf tubes each containing 200 sample (exception blank samples for which 10 μL of methanol/water, 50/50, V/V is added). Samples are vortexed for 5 sec and 800 μL of acetonitrile is added to each sample and vortexed for additional 10 sec. Next samples are centrifuged for 10 min at 14000 rpm at 5° C. and 900 μL is transferred to hemolyse tube. The samples are evaporated at approximately 40° C. […]
Whole blood is analyzed for concentration of fingolimod and fingolimod phosphate using a validated analytical procedure for the simultaneous quantitation of both analytes. […] After, the analyte is separated on a Kinetex Biphenyl column (50×3.0 mm, 2.6 μm) and analyzed using electrospray ionization (ESI) tandem mass spectrometry (MS/MS) in the multiple reaction monitoring mode (MRM). […]

[6] = Visual solubility evaluation of Fingolimod free base; format: physicochemical; settings: for solubility: organic solvent or mixture, thermodynamic from solid, visual, RT
Procedure: A visual solubility evaluation of Fingolimod free base was performed.

[7] = system: Human skin from cosmetic reduction surgery; experiment: Skin penetration (IVPT), vertical diffusion cell (Method A); format: in vitro ADME
Procedure: The skin is dosed with approx. 6 mg of formulation to achieve a dose of ˜ 10 mg/cm2. Receptor solution is collected at pre-determined intervals over the course of 24 hours and analyzed using a liquid chromatography with tandem mass spectrometry (LC-MS/MS) analytical method.
Following 24 hours, the residual formulation is removed from the surface of the skin. The skin surface is tape-stripped up to five times to remove residual formulation and the top of the skin surface layers (Stratum Corneum). The epidermis is then heat-separated from the dermis. The active agent is extracted from the skin layers and the amount of active agent delivered to the epidermis and dermis is then determined by LC-MS/MS.

[8] = system: Reconstructed Human Epidermis (RHE) exposed to Th2 cytokines IL-4, IL-13, IL-25; experiment: Reconstructed Human Epidermis Th2 model for AD efficacy (Method S); format: cell-based; settings: 48 h
Procedure: Reconstructed Human Epidermis (RHE) tissues are produced and grown by StratiCELL. To generate the morphological and functional aspects of AD, RHE samples are exposed to Th2 cytokines IL-4, IL-13, IL-25. Th-2 cytokines are applied for 48 h in the culture medium of epidermis. Test formulations are applied simultaneously with the cytokines on the stratum corneum of the epidermis during the same 48 h. The tissue morphology is assessed by histology and hemalum/eosin (H/E) staining—quantification of a fluorescent dye (biotin) diffusion through the epidermis in order to evaluate the barrier function.

[9] = minipig, in vivo
Procedure: as §1, §2, §3, §4, §5

[10] = system: S1P receptors (S1P1 and S1P3-5); settings: cited from earlier work
[11] = estimated from Table 43a, epidermis assumed 80 μm, skin 500 μm, density 1.0 g/cm^3
[12] = gel with Fingolimod HCl […] (Table 42), Mean (n = 5)
[13] = gel with Tofacitinib Citrate 1.0% and Fingolimod HCl 0.01% (Table 43a), Mean (n = 5)

Compound: CCCCCCCCc1ccc(CCC(N)(CO)CO)cc1 [fingolimod, 2-amino-2-[2-(4-octylphenyl)ethyl]propane-1,3-diol]
quantifiability in blood [1]: not quantifiable | human equivalent dose (HED) ([2]; from minipig NOAEL, minipig 10 kg, human 60 kg): 2.21 mg/kg/day | safety factor over the NOAEL of the 6-week minipig dermal toxicity study ([2]; maximum daily application of 2 g dual active gel): 669 fold | solubility ([3]; organic solvents, such as ethanol, DMSO and dimethyl formamide): soluble | solubility ([3]; water): sparingly soluble | Assay of Fingolimod, % LC ([4]; 2 months at 40° C.): 97.2 % LC | Assay of Fingolimod, % LC ([4]; 2 months at 50° C.): 95.0 % LC | Assay of Fingolimod, % LC ([4]; 3 weeks at 5° C.): 100.3 % LC | Assay of Fingolimod, % LC ([4]; 3 weeks at 40° C.): 99.9 % LC | Assay of Fingolimod, % LC ([4]; 3 weeks at 50° C.): 94.1 % LC | Assay of Fingolimod, % LC ([4]; Initial): 99.9 % LC | whole blood concentrations (all below the assay LLOQ) [5]: < 0.08 ng/mL | visual solubility at RT ([6]; alcohols): very good solubility | visual solubility at RT ([6]; most of organic solvents tested): good solubility | solubility ([6]; Diisopropyloxide): < 1.1 mg/mL | solubility ([6]; Ethanol): > 20 mg/mL | solubility ([6]; Methanol): > 20 mg/mL | solubility ([6]; Toluene): < 1.7 mg/mL | visual solubility at RT ([6]; water, toluene, diisopropyloxide and methyl ethyl ketone): very low soluble | Dermis concentration, μg/g Based on the Mean (n = 5) [7, 11]: 0.6 µg/g | Epidermis concentration, μg/g Based on the Mean (n = 5) [7, 11]: 3.4 µg/g | estimated concentration of active in dermis ([7]; formulation with 1.0% tofacitinib citrate and […] fingolimod hydrochloride): 0.6 µg/mL | estimated concentration of active in epidermis ([7]; formulation with 1.0% tofacitinib citrate and […] fingolimod hydrochloride, epidermis assumed 80 μm): 3.4 µg/g | Amount of Fingolimod recovered, % applied dose, Dermis [7, 12]: 2.59% | Amount of Fingolimod recovered, % applied dose, Epidermis [7, 12]: 1.98% | Amount of Fingolimod recovered, % applied dose, Receptor fluid [7, 12]: ND (not detected (below LOQ of 0.25 ng/mL)) | Amount of Fingolimod recovered, ng, Dermis [7, 12]: 49.16 ^ ng | Amount of Fingolimod recovered, ng, Receptor fluid [7, 12]: ND (not detected (below LOQ of 0.25 ng/mL)) | Amount of Fingolimod recovered, % applied dose, Dermis [7, 13]: 1.44% | Amount of Fingolimod recovered, % applied dose, Epidermis [7, 13]: 1.59% | Amount of Fingolimod recovered, % applied dose, Receptor fluid [7, 13]: ND (not detected (below LOQ of 0.25 ng/ml)) | Amount of Fingolimod recovered, ng, Dermis [7, 13]: 14.82 ng | Amount of Fingolimod recovered, ng, Epidermis [7, 13]: 16.21 ng | Amount of Fingolimod recovered, ng, Receptor fluid [7, 13]: ND (not detected (below LOQ of 0.25 ng/ml)) | barrier function (biotin immunofluorescence) ([8]; 0.001% w/w and 0.01% w/w): reduced the Th2-induced barrier alteration | tissue morphology (histology) ([8]; 0.001% w/w and 0.01% w/w): reduced the Th2-induced barrier alteration | barrier function (biotin immunofluorescence) ([8]; 0.1% and 1%): Increased barrier alteration | tissue morphology (histology) ([8]; 0.1% w/w and 1% w/w): increased fragilization was observed with junction/adhesion loss and disorganization of cell layers

whole blood concentrations (all below the assay LLOQ) [5]: < 0.08 ng/mL
Compound: fingolimod-phosphate
quantifiability in blood [9]: only quantifiable in the 0.2% fingolimod gel group | affinity for four of the five S1P receptors [10]: 0.3 to 3.1 nM
